Reference: patent US11458189B2, “Cytoprotective drugs” (BALMES TRANSPLANTATION, priority 2017, dated 2022)
Starred links: 1 amine or outer side, 2 acyl side, 3 side chain; linkers in the order of their positions; H or OH if unused. Positions of bridges follow the written chain, without caps; N, C: chain ends. Non-standard residues stand in square brackets, D forms with d. Residues, ends and D or L forms follow the SMILES beside them. *: point of attachment. hTyr(3S-OH,4S-OH,3'-OSO3H) = N[C@H](C(=O)O)[C@H](O)[C@@H](O)c1ccc(O)c(OS(=O)(=O)O)c1; Orn(4R-OH,5R-OH) = O=C([C@H](C[C@@H](O)[C@@H](O)N[*:3])N[*:1])[*:2]; Pro(3S-OH,4S-Me) = C[C@H]1CN[C@H](C(=O)O)[C@H]1O; X1 = CCCCCOc1ccc(-c2cc(-c3ccc(C(=O)*)cc3)no2)cc1; Gln(3R-OH) = NC(=O)C[C@@H](O)[C@H](N)C(=O)O; Hyp = O=C(O)[C@@H]1C[C@@H](O)CN1

Test system: Human Renal Glomerular Endothelial Cells (HRGEC)
Experiment: Oxygen and glucose deprivation followed by replenishment, cell survival (calcein AM), HRGEC
Format: cell-based
Method: Anidulafungin and micafungin were tested on Human Renal Glomerular Endothelial Cells (HRGEC, Innoprot P10665), on Human Renal Proximal Tubular Epithelial Cells (HRPTEpiC, Innoprot P10662), on Human Astrocytes (HA, caltag SC-1800), on Human Cardiac Microvascular Endothelial Cells (HCMEC, Caltag SC-6000), on Human Hepatic Sinusoidal Endothelial Cells (HHSEC, Caltag SC-5000), on Rat Primary Kidney Glomerular Endothelial cells (Cellbiologics, RN-6014G) and on Bovine Brain Microvascular Endothelial Cells (BBMEC, Caltag SC-B100).
In a first phase, these isolated, purified and cryopreserved cells are thawed and multiplied according to the supplier's recommendations in T75 or T175 flasks pre-coated with 2 μg of fibronectin/[…] (CORNING) for HRGEC, HCMEC, HHSEC and BBMEC, or 2 μg poly-L-lysin/cm^2 (Caltag SC-0403) for HRPTEpiC and HA, or 15 mL/flask 175 cm^2 gelatin-based solution (Cellbiologics) in the presence of endothelial cell supplemented growth medium ECM (P60104, INNOPROT, Caltag, SC-1001) for HRGEC, HCMEC, HHSEC, RPKGEC or BBMEC, or astrocyte cell supplemented growth medium AM (Caltag SC-1801) for HA or epithelial cell supplemented growth medium EpiCM (P60106, INNOPROT) for HRPTEpiC, at 37° C. under 5% CO2 and saturated humidity until their confluency. They are then harvested by trypsinization according to the method described by the supplier for exactly 5 minutes and then reseeded in new flasks a maximum of three times.
To carry out the oxygen and glucose deprivation test followed by their replenishment, the cells will be seeded in 96-well black plates with transparent flat bottom (GREINER). Once a sufficient number of cells has been obtained to allow seeding of 2000 to 15000 cells per well of 96-well plates depending on the cell type, the cells are seeded in these 96-well plates previously coated with an extracellular matrix as listed above for the flasks. The cells are cultured for 5 to 8 days according to the cell type, in the presence of the same growth medium as in the flask as described above except for HRGEC and HRPTEpiC for which DMEM (DUTSCHER) with 1 g/L of supplemented glucose is used, at 37° C. under 5% CO2 and saturated humidity to obtain confluency.
On the first day of oxygen and glucose deprivation, (5th, 6th, 7th or 8th day of culture), the culture conditions are drastically changed. The medium of all plates is removed and replaced by DMEM (DUTSCHER) medium without glucose and supplemented only with 1% penicillin-streptomycin (DUTSCHER). Anidulafungin or micafungin dissolved in dimethyl sulfoxide (DMSO) is then added to each well at the desired concentration, resulting in a maximum of 1% DMSO, and the plates are placed under hypoxia at <1% 02 and 5% CO2 at 37° C. for 24 hours of culture. Each compound was tested in a concentration range.
After 24 hours, the growth medium is changed and replaced by a richer medium, DMEM (DUTSCHER) at 1 g/L glucose and 2% FBS (INNOPROT) and 1% penicillin-streptomycin (DUTSCHER). These media will have been pre-equilibrated at 37° C. in advance. The cells are then returned to culture at 37° C. under 20% 02 and 5% CO2 for 22h.
After 22 hours of reoxygenation, the potential protective effect of anidulafungin or micafungin is measured by a cell viability test using calcein AM (CORNING), which is a dye substrate. The calcein AM can easily cross the cell membrane of the viable cells. The AM ester groups mask the part of the molecule that chelates calcium. Once inside the cells, the (non-fluorescent) calcein AM is hydrolyzed to (fluorescent) calcein by endogenous esterases. The resulting calcein molecule binds to calcium inside the cell and remains trapped inside the cell. These molecules emit strong green fluorescence when subjected to […] of a particular wavelength (495 nm). Since dead cells lack esterase activity, only living cells are labelled.
This cell viability test is performed in two steps. […]

With `CCCCCOc1ccc(-c2cc(-c3ccc(C(=O)N[C@H]4C[C@@H](O)[C@@H](O)NC(=O)[C@@H]5[C@@H](O)[C@@H](C)CN5C(=O)[C@H]([C@H](O)CC(N)=O)NC(=O)[C@H]([C@H](O)[C@@H](O)c5ccc(O)c(OS(=O)(=O)O)c5)NC(=O)[C@@H]5C[C@@H](O)CN5C(=O)[C@H]([C@@H](C)O)NC4=O)cc3)no2)cc1` [Micafungin, {5-[(1S,2S)-2-[(3S,6S,9S,11R,15S,18S,20R,21R,24S,25S,26S)-3-[(1R)-2-carbamoyl-1-hydroxyethyl]-11,20,21,25-tetrahydroxy-15-[(1R)-1-hydroxyethyl]-26-methyl-2,5,8,14,17,23-hexaoxo-18-[(4-{5-[4-(pentyloxy)phenyl]-1,2-oxazol-3-yl}benzene)amido]-1,4,7,13,16,22-hexaazatricyclo[22.3.0.0]heptacosan-6-yl]-1,2-dihydroxyethyl]-2-hydroxyphenyl}oxidanesulfonic acid] (X1-[Orn(4R-OH,5R-OH)]T[Hyp][hTyr(3S-OH,4S-OH,3'-OSO3H)][Gln(3R-OH)][Pro(3S-OH,4S-Me)]; lactam 1-C) the “Globalfluo assay 1” value ([Micafungin] log μM −4) was 11181240 arbitrary units, the “Globalfluo assay 2” value ([Micafungin] log μM −4) was 11805530 arbitrary units and the “Globalfluo assay 3” value ([Micafungin] log μM −4) was 11095570 arbitrary units. The Mean globalfluo ([Micafungin] log μM −4) was 11360780 arbitrary units, the “Survival rate (%)” value ([Micafungin] log μM −4) was 37% and the “Globalfluo assay 1” value ([Micafungin] log μM −4.124939) was 12113050 arbitrary units. The “Globalfluo assay 2” value ([Micafungin] log μM −4.124939) was 11168770 arbitrary units, the “Globalfluo assay 3” value ([Micafungin] log μM −4.124939) was 11691720 arbitrary units and the Mean globalfluo ([Micafungin] log μM −4.124939) was 11657847 arbitrary units. For the same compound, the “Survival rate (%)” value ([Micafungin] log μM −4.124939) was 38%, the “Globalfluo assay 1” value ([Micafungin] log μM −4.30103) was 10705920 arbitrary units and the “Globalfluo assay 2” value ([Micafungin] log μM −4.30103) was 12585990 arbitrary units. The “Globalfluo assay 3” value ([Micafungin] log μM −4.30103) was 12661760 arbitrary units, the Mean globalfluo ([Micafungin] log μM −4.30103) was 11984557 arbitrary units and the “Survival rate (%)” value ([Micafungin] log μM −4.30103) was 40%. For the same compound, the “Globalfluo assay 1” value ([Micafungin] log μM −4.39794) was 12034270 arbitrary units, the “Globalfluo assay 2” value ([Micafungin] log μM −4.39794) was 11904770 arbitrary units and the “Globalfluo assay 3” value ([Micafungin] log μM −4.39794) was 11704580 arbitrary units. For the same compound, the Mean globalfluo ([Micafungin] log μM −4.39794) was 11881207 arbitrary units, the “Survival rate (%)” value ([Micafungin] log μM −4.39794) was 39% and the “Globalfluo assay 1” value ([Micafungin] log μM −4.522879) was 9416001 arbitrary units. For the same compound, the “Globalfluo assay 2” value ([Micafungin] log μM −4.522879) was 11987430 arbitrary units, the “Globalfluo assay 3” value ([Micafungin] log μM −4.522879) was 10070420 arbitrary units and the Mean globalfluo ([Micafungin] log μM −4.522879) was 10491284 arbitrary units. The “Survival rate (%)” value ([Micafungin] log μM −4.522879) was 34%, the “Globalfluo assay 1” value ([Micafungin] log μM −4.60206) was 10458840 arbitrary units and the “Globalfluo assay 2” value ([Micafungin] log μM −4.60206) was 10594720 arbitrary units. For the same compound, the “Globalfluo assay 3” value ([Micafungin] log μM −4.60206) was 8636463 arbitrary units, the Mean globalfluo ([Micafungin] log μM −4.60206) was 9896674 arbitrary units and the “Survival rate (%)” value ([Micafungin] log μM −4.60206) was 31%. For the same compound, the “Globalfluo assay 1” value ([Micafungin] log μM −4.69897) was 8790971 arbitrary units, the “Globalfluo assay 2” value ([Micafungin] log μM −4.69897) was 10993750 arbitrary units and the “Globalfluo assay 3” value ([Micafungin] log μM −4.69897) was 9050581 arbitrary units. For the same compound, the Mean globalfluo ([Micafungin] log μM −4.69897) was 9611767 arbitrary units, the “Survival rate (%)” value ([Micafungin] log μM −4.69897) was 30% and the “Globalfluo assay 1” value ([Micafungin] log μM −4.823909) was 9039973 arbitrary units. The “Globalfluo assay 2” value ([Micafungin] log μM −4.823909) was 8208392 arbitrary units, the “Globalfluo assay 3” value ([Micafungin] log μM −4.823909) was 7686254 arbitrary units and the Mean globalfluo ([Micafungin] log μM −4.823909) was 8311540 arbitrary units. The “Survival rate (%)” value ([Micafungin] log μM −4.823909) was 25%, the “Globalfluo assay 1” value ([Micafungin] log μM −5) was 5367938 arbitrary units and the “Globalfluo assay 2” value ([Micafungin] log μM −5) was 7594623 arbitrary units. For the same compound, the “Globalfluo assay 3” value ([Micafungin] log μM −5) was 5742300 arbitrary units, the Mean globalfluo ([Micafungin] log μM −5) was 6234954 arbitrary units and the “Survival rate (%)” value ([Micafungin] log μM −5) was 16%. The “Globalfluo assay 1” value ([Micafungin] log μM −5.09691) was 5198634 arbitrary units, the “Globalfluo assay 2” value ([Micafungin] log μM −5.09691) was 5680528 arbitrary units and the “Globalfluo assay 3” value ([Micafungin] log μM −5.09691) was 4518691 arbitrary units. The Mean globalfluo ([Micafungin] log μM −5.09691) was 5132618 arbitrary units, the “Survival rate (%)” value ([Micafungin] log μM −5.09691) was 11% and the “Globalfluo assay 1” value ([Micafungin] log μM −5.221849) was 5545222 arbitrary units. For the same compound, the “Globalfluo assay 2” value ([Micafungin] log μM −5.221849) was 4844574 arbitrary units, the “Globalfluo assay 3” value ([Micafungin] log μM −5.221849) was 4333143 arbitrary units and the Mean globalfluo ([Micafungin] log μM −5.221849) was 4907646 arbitrary units. For the same compound, the “Survival rate (%)” value ([Micafungin] log μM −5.221849) was 10%, the “Globalfluo assay 1” value ([Micafungin] log μM −5.39794) was 3889914 arbitrary units and the “Globalfluo assay 2” value ([Micafungin] log μM −5.39794) was 3964004 arbitrary units. For the same compound, the “Globalfluo assay 3” value ([Micafungin] log μM −5.39794) was 4064339 arbitrary units, the Mean globalfluo ([Micafungin] log μM −5.39794) was 3972752 arbitrary units and the “Survival rate (%)” value ([Micafungin] log μM −5.39794) was 7%. For the same compound, the “Globalfluo assay 1” value ([Micafungin] log μM −5.69897) was 3399775 arbitrary units, the “Globalfluo assay 2” value ([Micafungin] log μM −5.69897) was 3118863 arbitrary units and the “Globalfluo assay 3” value ([Micafungin] log μM −5.69897) was 3166056 arbitrary units. For the same compound, the Mean globalfluo ([Micafungin] log μM −5.69897) was 3228231 arbitrary units, the “Survival rate (%)” value ([Micafungin] log μM −5.69897) was 4% and the “Globalfluo assay 1” value ([Micafungin] log μM −6) was 3157528 arbitrary units. For the same compound, the “Globalfluo assay 2” value ([Micafungin] log μM −6) was 2851345 arbitrary units, the “Globalfluo assay 3” value ([Micafungin] log μM −6) was 2667237 arbitrary units and the Mean globalfluo ([Micafungin] log μM −6) was 2892037 arbitrary units. The “Survival rate (%)” value ([Micafungin] log μM −6) was 2%, the “Globalfluo assay 1” value ([Micafungin] log μM −6.30103) was 2192241 arbitrary units and the “Globalfluo assay 2” value ([Micafungin] log μM −6.30103) was 2496288 arbitrary units. For the same compound, the “Globalfluo assay 3” value ([Micafungin] log μM −6.30103) was 2306718 arbitrary units, the Mean globalfluo ([Micafungin] log μM −6.30103) was 2331749 arbitrary units and the “Survival rate (%)” value ([Micafungin] log μM −6.30103) was 0%. For the same compound, the “Globalfluo assay 1” value ([Micafungin] log μM −7) was 2276775 arbitrary units, the “Globalfluo assay 2” value ([Micafungin] log μM −7) was 2276419 arbitrary units and the “Globalfluo assay 3” value ([Micafungin] log μM −7) was 1622516 arbitrary units. The Mean globalfluo ([Micafungin] log μM −7) was 2058570 arbitrary units and the “Survival rate (%)” value ([Micafungin] log μM −7) was −1%.
